# Biological target: GCN2 (Homo sapiens (Human), UniProt Q9P2K8)
# Experiment: GCN2 Biochemical Assay (TR-FRET, GFP-eIF2S1 substrate phosphorylation)
# Conditions: read-out: IC50 (GCN2 Inhibitory Activity)
# How it was run: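 TR-FRET readout (Ex 340, Em 490/520 nm) after 2–3 h with Tb-labelled phospho-eIF2S1 antibody in stop mix, following a 70 min room-temperature kinase step. Reaction: in-house GCN2, GFP-eIF2S1, ATP, tRNA in Tris pH 7.5 (2× stocks 1.6 nM, 50 nM, 0.2 mM); compounds tested at 10 concentrations, with a phospho-substrate artifact counter-plate.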
# GCN2, sequence (Q9P2K8 whole entry): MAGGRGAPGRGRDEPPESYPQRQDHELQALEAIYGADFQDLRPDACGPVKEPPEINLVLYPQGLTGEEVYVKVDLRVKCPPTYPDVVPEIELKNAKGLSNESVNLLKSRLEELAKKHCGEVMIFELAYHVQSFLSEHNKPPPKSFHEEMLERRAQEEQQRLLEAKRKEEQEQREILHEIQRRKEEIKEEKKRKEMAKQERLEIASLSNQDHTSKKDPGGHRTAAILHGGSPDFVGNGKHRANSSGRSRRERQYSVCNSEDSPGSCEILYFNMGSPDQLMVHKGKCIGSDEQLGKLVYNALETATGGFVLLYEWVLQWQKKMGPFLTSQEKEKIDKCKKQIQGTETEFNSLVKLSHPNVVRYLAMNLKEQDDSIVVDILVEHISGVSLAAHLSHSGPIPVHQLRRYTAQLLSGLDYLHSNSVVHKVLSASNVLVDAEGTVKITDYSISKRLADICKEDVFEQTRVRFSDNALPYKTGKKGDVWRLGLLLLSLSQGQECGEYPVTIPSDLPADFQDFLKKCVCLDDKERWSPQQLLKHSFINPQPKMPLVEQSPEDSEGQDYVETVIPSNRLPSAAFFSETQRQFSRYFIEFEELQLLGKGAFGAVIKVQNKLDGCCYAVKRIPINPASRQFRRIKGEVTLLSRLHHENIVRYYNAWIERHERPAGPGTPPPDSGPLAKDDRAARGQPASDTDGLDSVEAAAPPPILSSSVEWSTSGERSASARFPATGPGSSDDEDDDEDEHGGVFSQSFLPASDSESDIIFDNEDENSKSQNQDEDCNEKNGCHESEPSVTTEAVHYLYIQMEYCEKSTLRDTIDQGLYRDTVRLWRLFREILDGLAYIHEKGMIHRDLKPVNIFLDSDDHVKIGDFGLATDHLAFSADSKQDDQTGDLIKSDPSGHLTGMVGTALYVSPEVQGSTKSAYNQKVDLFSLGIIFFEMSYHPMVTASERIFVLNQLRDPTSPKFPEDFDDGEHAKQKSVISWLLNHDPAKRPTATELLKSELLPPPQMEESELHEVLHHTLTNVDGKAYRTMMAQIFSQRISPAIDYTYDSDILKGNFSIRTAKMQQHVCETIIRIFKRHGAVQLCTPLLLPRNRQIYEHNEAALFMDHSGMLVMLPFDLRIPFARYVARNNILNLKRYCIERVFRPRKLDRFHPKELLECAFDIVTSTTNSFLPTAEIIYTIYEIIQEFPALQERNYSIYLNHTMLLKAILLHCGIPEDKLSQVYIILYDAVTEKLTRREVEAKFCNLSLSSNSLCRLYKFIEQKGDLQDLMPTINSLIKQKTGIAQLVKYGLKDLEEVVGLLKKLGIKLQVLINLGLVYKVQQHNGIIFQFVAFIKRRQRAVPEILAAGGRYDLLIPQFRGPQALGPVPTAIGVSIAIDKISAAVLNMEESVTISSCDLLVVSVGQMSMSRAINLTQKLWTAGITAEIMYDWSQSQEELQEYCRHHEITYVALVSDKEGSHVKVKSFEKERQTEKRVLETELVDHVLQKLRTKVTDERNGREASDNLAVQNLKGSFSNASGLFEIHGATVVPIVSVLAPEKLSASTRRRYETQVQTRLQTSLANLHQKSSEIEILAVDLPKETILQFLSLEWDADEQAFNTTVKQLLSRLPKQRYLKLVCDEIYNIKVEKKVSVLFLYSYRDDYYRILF
row,SMILES,IC50 [nM]
1,"Cc1cnc(Nc2cc(C)n(C)n2)nc1-c1c[nH]c2c(NC(=O)CN3CC[C@H](Oc4ncc(F)c(N)n4)C3)cccc12 [Example 176, (S)-2-(3-((4-amino-5-fluoropyrimidin-2-yl)oxy)pyrrolidin-1-yl)-N-(3-(2-((1,5-dimethyl-1H-pyrazol-3-yl)amino)-5-methylpyrimidin-4-yl)-1H-indol-7-yl)acetamide]",10 to 100
2,"CCNc1nc(O[C@H]2CCN(CC(=O)Nc3cccc4c(-c5nc(Nc6cc(C)n(C)n6)ncc5C)c[nH]c34)C2)ncc1F [Example 178, (S)-N-(3-(2-((1,5-dimethyl-1H-pyrazol-3-yl)amino)-5-methylpyrimidin-4-yl)-1H-indol-7-yl)-2-(3-((4-(ethylamino)-5-fluoropyrimidin-2-yl)oxy)pyrrolidin-1-yl)acetamide]",< 10
3,"Cc1cnc(Nc2cc(C)n(C)n2)nc1-c1c[nH]c2c(NC(=O)CN3CC[C@H](Oc4ncc(F)c(NC5CCCCC5)n4)C3)cccc12 [Example 180, (S)-2-(3-((4-(cyclohexylamino)-5-fluoropyrimidin-2-yl)oxy)pyrrolidin-1-yl)-N-(3-(2-((1,5-dimethyl-1H-pyrazol-3-yl)amino)-5-methylpyrimidin-4-yl)-1H-indol-7-yl)acetamide]",10 to 100
4,"Cc1cnc(Nc2cc(C)n(C)n2)nc1-c1c[nH]c2c(NC(=O)CN3CC[C@H](Oc4ncc(F)c(N(C)C)n4)C3)cccc12 [Example 181, (S)-N-(3-(2-((1,5-dimethyl-1H-pyrazol-3-yl)amino)-5-methylpyrimidin-4-yl)-1H-indol-7-yl)-2-(3-((4-(dimethylamino)-5-fluoropyrimidin-2-yl)oxy)pyrrolidin-1-yl)acetamide]",< 10
5,"Cc1cnc(Nc2cc(C)n(C)n2)nc1-c1c[nH]c2c(NC(=O)CN3CC[C@H](Oc4ncc(F)c(N(C)c5ccccc5)n4)C3)cccc12 [Example 184, (S)-N-(3-(2-((1,5-dimethyl-1H-pyrazol-3-yl)amino)-5-methylpyrimidin-4-yl)-1H-indol-7-yl)-2-(3-((5-fluoro-4-(methyl(phenyl)amino)pyrimidin-2-yl)oxy)pyrrolidin-1-yl)acetamide]",10 to 100
6,"Cc1cnc(Nc2cc(C)n(C)n2)nc1-c1c[nH]c2c(NC(=O)CN3CC[C@H](Oc4ncc(F)c(N5CCCC5)n4)C3)cccc12 [Example 186, (S)-N-(3-(2-((1,5-dimethyl-1H-pyrazol-3-yl)amino)-5-methylpyrimidin-4-yl)-1H-indol-7-yl)-2-(3-((5-fluoro-4-(pyrrolidin-1-yl)pyrimidin-2-yl)oxy)pyrrolidin-1-yl)acetamide]",< 10
7,"Cc1cnc(Nc2cc(C)n(C)n2)nc1-c1c[nH]c2c(NC(=O)CN3CC[C@H](Oc4ncc(F)c(N5CCCCC5)n4)C3)cccc12 [Example 187, (S)-N-(3-(2-((1,5-dimethyl-1H-pyrazol-3-yl)amino)-5-methylpyrimidin-4-yl)-1H-indol-7-yl)-2-(3-((5-fluoro-4-(piperidin-1-yl)pyrimidin-2-yl)oxy)pyrrolidin-1-yl)acetamide]",< 10
8,"Cc1cnc(Nc2cc(C)n(C)n2)nc1-c1c[nH]c2c(NC(=O)CN3CC[C@H](Oc4ncc(F)c(N5CCSCC5)n4)C3)cccc12 [Example 189, (S)-N-(3-(2-((1,5-dimethyl-1H-pyrazol-3-yl)amino)-5-methylpyrimidin-4-yl)-1H-indol-7-yl)-2-(3-((5-fluoro-4-thiomorpholinopyrimidin-2-yl)oxy)pyrrolidin-1-yl)acetamide]",< 10
9,"CSc1nccc(O[C@H]2CCN(CC(=O)Nc3cccc4c(-c5nc(Nc6cc(C)n(C)n6)ncc5C)c[nH]c34)C2)n1 [Example 193, (S)-N-(3-(2-((1,5-dimethyl-1H-pyrazol-3-yl)amino)-5-methylpyrimidin-4-yl)-1H-indol-7-yl)-2-(3-((2-(methylthio)pyrimidin-4-yl)oxy)pyrrolidin-1-yl)acetamide]",< 10
10,"Cc1cnc(Nc2cc(C)n(C)n2)nc1-c1c[nH]c2c(NC(=O)CN3CC[C@H](Oc4ccnc(OCc5ccccc5)n4)C3)cccc12 [Example 195, (S)-2-(3-((2-(benzyloxy)pyrimidin-4-yl)oxy)pyrrolidin-1-yl)-N-(3-(2-((1,5-dimethyl-1H-pyrazol-3-yl)amino)-5-methylpyrimidin-4-yl)-1H-indol-7-yl)acetamide]",10 to 100
11,"CNc1nccc(O[C@H]2CCN(CC(=O)Nc3cccc4c(-c5nc(Nc6cc(C)n(C)n6)ncc5C)c[nH]c34)C2)n1 [Example 197, (S)-N-(3-(2-((1,5-dimethyl-1H-pyrazol-3-yl)amino)-5-methylpyrimidin-4-yl)-1H-indol-7-yl)-2-(3-((2-(methylamino)pyrimidin-4-yl)oxy)pyrrolidin-1-yl)acetamide]",< 10

# Now from value to compound:
row,IC50 [nM],SMILES
1,< 10,"Cc1cnc(Nc2cc(C)n(C)n2)nc1-c1c[nH]c2c(NC(=O)CN3CC[C@H](Oc4nccc(NC5CC5)n4)C3)cccc12 [Example 175, (S)-2-(3-((4-(cyclopropylamino)pyrimidin-2-yl)oxy)pyrrolidin-1-yl)-N-(3-(2-((1,5-dimethyl-1H-pyrazol-3-yl)amino)-5-methylpyrimidin-4-yl)-1H-indol-7-yl)acetamide]"
2,< 10,"CNc1nc(O[C@H]2CCN(CC(=O)Nc3cccc4c(-c5nc(Nc6cc(C)n(C)n6)ncc5C)c[nH]c34)C2)ncc1F [Example 177, (S)-N-(3-(2-((1,5-dimethyl-1H-pyrazol-3-yl)amino)-5-methylpyrimidin-4-yl)-1H-indol-7-yl)-2-(3-((5-fluoro-4-(methylamino)pyrimidin-2-yl)oxy)pyrrolidin-1-yl)acetamide]"
3,< 10,"Cc1cnc(Nc2cc(C)n(C)n2)nc1-c1c[nH]c2c(NC(=O)CN3CC[C@H](Oc4ncc(F)c(NC5CC5)n4)C3)cccc12 [Example 179, (S)-2-(3-((4-(cyclopropylamino)-5-fluoropyrimidin-2-yl)oxy)pyrrolidin-1-yl)-N-(3-(2-((1,5-dimethyl-1H-pyrazol-3-yl)amino)-5-methylpyrimidin-4-yl)-1H-indol-7-yl)acetamide]"
4,< 10,"CCN(C)c1nc(O[C@H]2CCN(CC(=O)Nc3cccc4c(-c5nc(Nc6cc(C)n(C)n6)ncc5C)c[nH]c34)C2)ncc1F [Example 182, (S)-N-(3-(2-((1,5-dimethyl-1H-pyrazol-3-yl)amino)-5-methylpyrimidin-4-yl)-1H-indol-7-yl)-2-(3-((4-(ethyl(methyl)amino)-5-fluoropyrimidin-2-yl)oxy)pyrrolidin-1-yl)acetamide]"
5,< 10,"CCN(CC)c1nc(O[C@H]2CCN(CC(=O)Nc3cccc4c(-c5nc(Nc6cc(C)n(C)n6)ncc5C)c[nH]c34)C2)ncc1F [Example 183, (S)-2-(3-((4-(diethylamino)-5-fluoropyrimidin-2-yl)oxy)pyrrolidin-1-yl)-N-(3-(2-((1,5-dimethyl-1H-pyrazol-3-yl)amino)-5-methylpyrimidin-4-yl)-1H-indol-7-yl)acetamide]"
6,< 10,"Cc1cnc(Nc2cc(C)n(C)n2)nc1-c1c[nH]c2c(NC(=O)CN3CC[C@H](Oc4ncc(F)c(N(C)Cc5ccccc5)n4)C3)cccc12 [Example 185, (S)-2-(3-((4-(benzyl(methyl)amino)-5-fluoropyrimidin-2-yl)oxy)pyrrolidin-1-yl)-N-(3-(2-((1,5-dimethyl-1H-pyrazol-3-yl)amino)-5-methylpyrimidin-4-yl)-1H-indol-7-yl)acetamide]"
7,< 10,"Cc1cnc(Nc2cc(C)n(C)n2)nc1-c1c[nH]c2c(NC(=O)CN3CC[C@H](Oc4ncc(F)c(N5CCOCC5)n4)C3)cccc12 [Example 188, (S)-N-(3-(2-((1,5-dimethyl-1H-pyrazol-3-yl)amino)-5-methylpyrimidin-4-yl)-1H-indol-7-yl)-2-(3-((5-fluoro-4-morpholinopyrimidin-2-yl)oxy)pyrrolidin-1-yl)acetamide]"
8,< 10,"Cc1cnc(Nc2cc(C)n(C)n2)nc1-c1c[nH]c2c(NC(=O)CN3CC[C@H](Oc4ncc(F)c(N5CCN(C)CC5)n4)C3)cccc12 [Example 190, (S)-N-(3-(2-((1,5-dimethyl-1H-pyrazol-3-yl)amino)-5-methylpyrimidin-4-yl)-1H-indol-7-yl)-2-(3-((5-fluoro-4-(4-methylpiperazin-1-yl)pyrimidin-2-yl)oxy)pyrrolidin-1-yl)acetamide]"
9,< 10,"Cc1cnc(O[C@H]2CCN(CC(=O)Nc3cccc4c(-c5nc(Nc6cc(C)n(C)n6)ncc5C)c[nH]c34)C2)nc1NC1CC1 [Example 191, (S)-2-(3-((4-(cyclopropylamino)-5-methylpyrimidin-2-yl)oxy)pyrrolidin-1-yl)-N-(3-(2-((1,5-dimethyl-1H-pyrazol-3-yl)amino)-5-methylpyrimidin-4-yl)-1H-indol-7-yl)acetamide]"
10,< 10,"Cc1cnc(Nc2cc(C)n(C)n2)nc1-c1c[nH]c2c(NC(=O)CN3CC[C@H](Oc4ccnc(N)n4)C3)cccc12 [Example 192, (S)-2-(3-((2-aminopyrimidin-4-yl)oxy)pyrrolidin-1-yl)-N-(3-(2-((1,5-dimethyl-1H-pyrazol-3-yl)amino)-5-methylpyrimidin-4-yl)-1H-indol-7-yl)acetamide]"
11,< 10,"COc1nccc(O[C@H]2CCN(CC(=O)Nc3cccc4c(-c5nc(Nc6cc(C)n(C)n6)ncc5C)c[nH]c34)C2)n1 [Example 194, (S)-N-(3-(2-((1,5-dimethyl-1H-pyrazol-3-yl)amino)-5-methylpyrimidin-4-yl)-1H-indol-7-yl)-2-(3-((2-methoxypyrimidin-4-yl)oxy)pyrrolidin-1-yl)acetamide]"
12,< 10,"CC(=O)Nc1nccc(O[C@H]2CCN(CC(=O)Nc3cccc4c(-c5nc(Nc6cc(C)n(C)n6)ncc5C)c[nH]c34)C2)n1 [Example 196, (S)-2-(3-((2-acetamidopyrimidin-4-yl)oxy)pyrrolidin-1-yl)-N-(3-(2-((1,5-dimethyl-1H-pyrazol-3-yl)amino)-5-methylpyrimidin-4-yl)-1H-indol-7-yl)acetamide]"
